# Experimental data from patent USRE42890E1, “Furazanobenzimidazoles” (Basilea Pharmaceutica AG, priority 2003, dated 2011).
# Experiments:
# [1] = tested on: MRC5; assay: MTS proliferation assay, MRC5; type: cell-based; conditions: MRC5, 72 h incubation; read-out: MTS proliferation assay IC 50 MRC5
# How it was run: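 Seed cells in complete RPMI-1640 medium and allow 24 h attachment. Add compounds to final 10 μM, 3 μM, 1 μM or 0.3 μM and incubate 72 h at 37° C. Add MTS, incubate 3 h more, then measure absorption at 492 nm.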
# [2] = tested on: Jurkat; assay: MTS proliferation assay, Jurkat; type: cell-based, human; conditions: 72 h incubation, read-out: MTS proliferation assay IC 50 Jurkat
# How it was run: (§1)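 Human lines, EGFP-transfected or not, grow in RPMI-1640 plus 5% or 10% FCS and 2-mercaptoethanol. They receive test compound for 72 h at final concentrations of 10, 3, 1 and 0.3 μM, and MTS conversion is measured at 492 nm.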
# [3] = tested on: HeLa; assay: MTS proliferation assay, HeLa; type: cell-based, human; conditions: 72 h incubation, read-out: MTS proliferation assay IC 50 HeLa
# How it was run: as §1
# [4] = tested on: adherent cells or suspension cells; assay: Hoechst 33342 nuclear staining (fraction of apoptotic nuclei); type: cell-based; parameters: key: 0 relating to no activity; 1 relating to weak activity comprising less than 70% of the cells; score 2 relating to strong activity comprising more than 70% of the cells
# [5] = tested on: Jurkat; assay: PI staining for cell cycle distribution, Jurkat; type: cell-based, human; parameters: key: 0: no effect; 1: weak effect; 2: strong effect; conditions: Jurkat 3 μM, 24 h; for PI staining for cell cycle distribution, G2M: cell population arrested in G2M phase; for PI staining for cell cycle distribution, subG1: subG1 peak indicative for DNA fragmentation
# Description: (§2) Cell lines are cultured in RPMI-1640 tissue culture medium containing either 5% or 10% fetal calf serum, 0.05 mM 2-mercaptoethanol, 2 mM glutamine and penicillin/streptomycin 50 μg/ml (complete medium) (Sigma, Buchs, Switzerland). General growth conditions are 37° C. and 7.5% CO2.
# (§3) The following human cell lines (either EGFP transfected or not) are being used: HeLa (ATCC: CCL-2), KB (ATCC: CCL-17), MCF7 (ATCC: HTB-22), SK-BR-3 (ATCC: HTB-30), SK-Mel 1 (ATCC: HTB-67), SK-Mel 28 (ATCC: HTB-72), PC-3 (ATCC: CRL-1435), SW 480 (ATCC: CCL-228), NCl-H460 (ATCC: HTB-177), NCl-H1792 (ATCC: CRL-5895), HT1080 (ATCC: CCL-21), Jurkat (ATCC: TIB-152), Ramos (ATCC: CRL-1596), Raji (ATCC: CCL-86), H9 (ATCC: HTB-176), Hut78 (ATCC: TIB-161), K562 (ATCC: CCL 243), HL-60 (ATCC: CCL 240), U-87MG (ATCC: HTB-14), HepG2 (ATCC: HB-8065), U-2 OS (ATCC: HTB-96), Saos-2 (ATCC: HTB-85), U937 (ATCC: CRL 1593), Hs 578T (ATCC: HTB 126), HBL-100 (ATCC: HTB 124), Molt-4 (ATCC: CRL 1582).
# (§4) 1-2*10^5 cells are seeded into 24 well tissue culture plates and incubated for 24 h prior to compound addition. Compounds are added for 24 h in a final concentration of 3 μM or 10 μM. Adherent cells are harvested by trypsinization. The cell suspensions are fixed by adding 2 parts ice cold ethanol 100% while vortexing. Then the samples are stored for >2 h at −20° C. Subsequently the cells are washed with PBS once and resuspended in 250 μl PBS containing 50 μg/ml PI (Calbiochem # 537059), then the samples are incubated at 37° C. for 30 minutes and subsequently analyzed on a FACSCalibur™ monitoring linear PI fluorescence activity on FL2. The readout allows the detection of a possible direct or indirect influence of the tested compounds on the cell cycle. The following events can occur: a) Generation of a subG1 peak indicative for DNA fragmentation, b) increase of the cell population arrested in G2M phase. Both events are scored by 1 for weak and 2 for strong occurrence. 0 indicates no occurrence at all.
# [6] = tested on: HeLa; assay: PI staining for cell cycle distribution, HeLa; type: cell-based, human; parameters: key: 0: no effect; 1: weak effect; 2: strong effect; conditions: HeLa 10 μM, 24 h; for PI staining for cell cycle distribution, G2M: cell population arrested in G2M phase; for PI staining for cell cycle distribution, subG1: subG1 peak indicative for DNA fragmentation
# Description: as §2, §3, §4
Structure (SMILES),IC50 [1] [nM],IC50 [2] [nM],IC50 [3] [nM],"Hoechst 33342 nuclear staining score ([4]; H460, conc 0.01 μm)","Hoechst 33342 nuclear staining score ([4]; H460, conc 0.1 μm)","Hoechst 33342 nuclear staining score ([4]; H460, conc 1 μm)","Hoechst 33342 nuclear staining score ([4]; HeLa, conc 0.01 μm)","Hoechst 33342 nuclear staining score ([4]; HeLa, conc 0.1 μm)","Hoechst 33342 nuclear staining score ([4]; HeLa, conc 1 μm)","Hoechst 33342 nuclear staining score ([4]; Jily, conc 0.01 μm)","Hoechst 33342 nuclear staining score ([4]; Jily, conc 0.1 μm)","Hoechst 33342 nuclear staining score ([4]; Jily, conc 1 μm)","Hoechst 33342 nuclear staining score ([4]; Jurkat, conc 0.01 μm)","Hoechst 33342 nuclear staining score ([4]; Jurkat, conc 0.1 μm)","Hoechst 33342 nuclear staining score ([4]; Jurkat, conc 1 μm)","Hoechst 33342 nuclear staining score ([4]; MRC5, conc 0.01 μm)","Hoechst 33342 nuclear staining score ([4]; MRC5, conc 0.1 μm)","Hoechst 33342 nuclear staining score ([4]; MRC5, conc 1 μm)","Hoechst 33342 nuclear staining score ([4]; PBLs, conc 0.01 μm)","Hoechst 33342 nuclear staining score ([4]; PBLs, conc 0.1 μm)",also measured
CON=C(Cn1c(-c2nonc2N)nc2ccccc21)c1ccc(Br)cc1 (mixture of isomers) [Example 30],100 to 1000,100 to 1000,100 to 1000,0,0,0,0,0,1 (1 relating to weak activity comprising less than 70% of the cells),0,0,1 (1 relating to weak activity comprising less than 70% of the cells),0,0,2 (score 2 relating to strong activity comprising more than 70% of the cells),0,0,2 (score 2 relating to strong activity comprising more than 70% of the cells),0,0,"Hoechst 33342 nuclear staining score ([4]; PBLs, conc 1 μm): 0; PI staining for cell cycle distribution, G2M [5]: 0; PI staining for cell cycle distribution, subG1 [5]: 0; PI staining for cell cycle distribution, G2M [6]: 2; PI staining for cell cycle distribution, subG1 [6]: 0"
Nc1nonc1-c1nc2ccccc2n1CC(=O)c1ccc(Br)cc1 [Example 29],10 to 100,10 to 100,10 to 100,0,0,2 (score 2 relating to strong activity comprising more than 70% of the cells),0,1 (1 relating to weak activity comprising less than 70% of the cells),2 (score 2 relating to strong activity comprising more than 70% of the cells),0,2 (score 2 relating to strong activity comprising more than 70% of the cells),2 (score 2 relating to strong activity comprising more than 70% of the cells),0,2 (score 2 relating to strong activity comprising more than 70% of the cells),2 (score 2 relating to strong activity comprising more than 70% of the cells),0,2 (score 2 relating to strong activity comprising more than 70% of the cells),2 (score 2 relating to strong activity comprising more than 70% of the cells),0,0,"Hoechst 33342 nuclear staining score ([4]; PBLs, conc 1 μm): 0; PI staining for cell cycle distribution, G2M [5]: 0; PI staining for cell cycle distribution, subG1 [5]: 0; PI staining for cell cycle distribution, G2M [6]: 2; PI staining for cell cycle distribution, subG1 [6]: 0"
COc1ccc(C(=O)Cn2c(-c3nonc3N)nc3ccccc32)cc1 [Example 19],100 to 1000,10 to 100,100 to 1000,0,0,2 (score 2 relating to strong activity comprising more than 70% of the cells),0,1 (1 relating to weak activity comprising less than 70% of the cells),2 (score 2 relating to strong activity comprising more than 70% of the cells),0,2 (score 2 relating to strong activity comprising more than 70% of the cells),2 (score 2 relating to strong activity comprising more than 70% of the cells),0,2 (score 2 relating to strong activity comprising more than 70% of the cells),2 (score 2 relating to strong activity comprising more than 70% of the cells),0,0,2 (score 2 relating to strong activity comprising more than 70% of the cells),0,0,"Hoechst 33342 nuclear staining score ([4]; PBLs, conc 1 μm): 0; PI staining for cell cycle distribution, G2M [5]: 0; PI staining for cell cycle distribution, subG1 [5]: 0; PI staining for cell cycle distribution, G2M [6]: 2; PI staining for cell cycle distribution, subG1 [6]: 0"
